# Experimental data as given in ChEMBL document CHEMBL5325426, “Structure-based discovery of potent USP28 inhibitors derived from Vismodegib” (Eur J Med Chem, 2023).
# Active and inactive are the calls of the source. The rule behind the calls is not given here.
# Columns and labels:
# LS174T [1] = experiment: Inhibition of colony formation in human LS174T cells at 10 uM by crystal violet staining assay; format: functional, cell-based
# [2] = molecular target: T1, Ubiquitin carboxyl-terminal hydrolase 25 (Homo sapiens) (UniProt Q9UHP3); experiment: Inhibition of USP25 in human LS174T cells assessed as downregulation of Tankyrase 1/2 protein level; format: cell-based
# T1 sequence (whole entry): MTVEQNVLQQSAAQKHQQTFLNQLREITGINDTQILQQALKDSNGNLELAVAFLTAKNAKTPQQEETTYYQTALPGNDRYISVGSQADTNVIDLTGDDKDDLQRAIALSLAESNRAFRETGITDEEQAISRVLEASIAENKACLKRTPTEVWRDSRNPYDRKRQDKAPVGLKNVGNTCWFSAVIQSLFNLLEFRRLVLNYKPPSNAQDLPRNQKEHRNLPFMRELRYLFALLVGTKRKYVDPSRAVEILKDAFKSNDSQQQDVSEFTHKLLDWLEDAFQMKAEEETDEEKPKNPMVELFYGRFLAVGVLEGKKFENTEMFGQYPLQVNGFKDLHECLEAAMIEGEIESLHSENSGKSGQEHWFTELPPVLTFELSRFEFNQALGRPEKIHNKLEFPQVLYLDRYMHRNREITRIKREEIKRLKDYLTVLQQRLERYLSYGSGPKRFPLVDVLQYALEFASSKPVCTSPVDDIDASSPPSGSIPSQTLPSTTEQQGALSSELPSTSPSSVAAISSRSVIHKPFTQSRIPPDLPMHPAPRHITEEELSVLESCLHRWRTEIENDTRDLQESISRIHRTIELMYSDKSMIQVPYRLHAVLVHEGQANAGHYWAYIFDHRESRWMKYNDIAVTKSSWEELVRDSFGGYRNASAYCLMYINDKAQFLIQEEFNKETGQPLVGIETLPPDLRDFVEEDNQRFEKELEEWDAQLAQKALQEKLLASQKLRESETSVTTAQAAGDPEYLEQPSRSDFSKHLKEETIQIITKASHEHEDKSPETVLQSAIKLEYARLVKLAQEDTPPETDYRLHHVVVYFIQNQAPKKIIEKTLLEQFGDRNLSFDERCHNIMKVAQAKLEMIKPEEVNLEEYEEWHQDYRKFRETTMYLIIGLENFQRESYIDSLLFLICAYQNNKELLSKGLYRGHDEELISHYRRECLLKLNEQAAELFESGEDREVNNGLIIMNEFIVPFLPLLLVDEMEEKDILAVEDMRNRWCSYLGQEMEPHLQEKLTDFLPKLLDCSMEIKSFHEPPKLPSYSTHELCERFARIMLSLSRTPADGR
# LS174T [3] = experiment: Inhibition of colony formation in human LS174T cells at 12.5 uM by crystal violet staining assay; format: functional, cell-based
# HCT-116 = experiment: Antiproliferative activity against human HCT-116 cells assessed as effect on Bcl-2 protein level at 30 to 80 uM incubated for 1 day by western blotting analysis; format: functional, cell-based; conditions: dose 30-80 µM
# LS174T [4] = experiment: Inhibition of colony formation in human LS174T cells at 15 uM by crystal violet staining assay; format: functional, cell-based
smiles,measurement,setting,value
CS(=O)(=O)c1ccc(C(=O)Nc2ccc(Cl)c(-c3ccc4c(c3)CCNC4)c2)c(Cl)c1,inhibition,LS174T [1],Active
CS(=O)(=O)c1ccc(C(=O)Nc2ccc(Cl)c(-c3ccc4c(c3)CNC4)c2)c(Cl)c1,inhibition,[2],Active
same,inhibition,LS174T [3],Active
CS(=O)(=O)c1ccc(C(=O)Nc2ccc(Cl)c(-c3ccc(C4(N)CC4)cc3)c2)c(Cl)c1,Activity,HCT-116,inactive
same,inhibition,LS174T [4],Active
